Assay results reported in the supplement of paper PMC8967900.

Assays:
Test in all cases: selective drug sensitivity score (sDSS, relative to normal bone marrow) (sDSS (score)); higher = more potent and effective on the cell line relative to normal bone marrow cells
Conditions in all cases: 72 h
[1] = test system: ALL-SIL
[2] = test system: CCRF-CEM
[3] = test system: COG-LL-319h
[4] = test system: COG-LL-332h
[5] = test system: COG-LL-355h
[6] = test system: COG-LL-394h
[7] = test system: DND-41
[8] = test system: HPB-ALL
[9] = test system: KASUMI-10
[10] = test system: KASUMI-2
[11] = test system: KASUMI-9
[12] = test system: LC4-1
[13] = test system: MN-60
[14] = test system: MOLT-16
[15] = test system: NALL-1
[16] = test system: P12-ICHIKAWA
[17] = test system: PEER
[18] = test system: REH
[19] = test system: SUP-B15
[20] = test system: TMD5
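Further: ALL cell lines in 384-well plates, five doses spanning 10,000-fold, each plate scaled between vehicle and 100 µmol/L benzalkonium chloride controls, sDSS an adapted area-under-curve metric.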

CC(C)[C@H](C(=O)Nc1ccc(C(=O)NO)cc1)c1ccccc1 [AR-42] (top concentration 10000 nM)
selective drug sensitivity score [1]: 10.2
selective drug sensitivity score [2]: 6.68
selective drug sensitivity score [3]: 10.8
selective drug sensitivity score [4]: 4.68
selective drug sensitivity score [5]: 6.68
selective drug sensitivity score [6]: 2.08
selective drug sensitivity score [7]: 6.98
selective drug sensitivity score [8]: 9.78
selective drug sensitivity score [9]: 6.88
selective drug sensitivity score [10]: 16
selective drug sensitivity score [11]: 8.08
selective drug sensitivity score [12]: 6.88
selective drug sensitivity score [13]: 1.48
selective drug sensitivity score [14]: 8.38
selective drug sensitivity score [15]: 3.68
selective drug sensitivity score [16]: 8.28
selective drug sensitivity score [17]: 9.18
selective drug sensitivity score [18]: 5.38
selective drug sensitivity score [19]: 9.58
selective drug sensitivity score [20]: 5.28

C[C@@]1(C(=O)Nc2ccc(F)nc2)CCCN1c1nc(Nc2cc(C3CC3)n[nH]2)c2cccn2n1 (top concentration 10000 nM)
selective drug sensitivity score [1]: 10.5
selective drug sensitivity score [2]: 11.8
selective drug sensitivity score [3]: 8.78
selective drug sensitivity score [4]: 10.5
selective drug sensitivity score [5]: 12.1
selective drug sensitivity score [6]: 5.98
selective drug sensitivity score [7]: -5.02
selective drug sensitivity score [8]: 8.28
selective drug sensitivity score [9]: 4.68
selective drug sensitivity score [10]: -6.52
selective drug sensitivity score [11]: 8.08
selective drug sensitivity score [12]: 11.4
selective drug sensitivity score [13]: -4.62
selective drug sensitivity score [14]: 12.5
selective drug sensitivity score [15]: 8.98
selective drug sensitivity score [16]: 11.3
selective drug sensitivity score [17]: 11.2
selective drug sensitivity score [18]: 9.08
selective drug sensitivity score [19]: 8.98
selective drug sensitivity score [20]: -0.12

COc1cccc2c1C(=O)c1c(O)c3c(c(O)c1C2=O)C[C@@](O)(/C(CO)=N/NC(=O)CCCCCN1C(=O)C=CC1=O)C[C@@H]3O[C@H]1C[C@H](N)[C@H](O)[C@H](C)O1 [Aldoxorubicin] (top concentration 1000 nM)
selective drug sensitivity score [1]: 0.74
selective drug sensitivity score [2]: 7.24
selective drug sensitivity score [3]: 14
selective drug sensitivity score [4]: 12.1
selective drug sensitivity score [5]: 4.44
selective drug sensitivity score [6]: 8.24
selective drug sensitivity score [7]: 1.84
selective drug sensitivity score [8]: 1.04
selective drug sensitivity score [9]: 9.24
selective drug sensitivity score [10]: 8.54
selective drug sensitivity score [11]: 8.64
selective drug sensitivity score [12]: 6.34
selective drug sensitivity score [13]: 0.84
selective drug sensitivity score [14]: 16.6
selective drug sensitivity score [15]: -1.86
selective drug sensitivity score [16]: 5.04
selective drug sensitivity score [17]: -3.06
selective drug sensitivity score [18]: 12.1
selective drug sensitivity score [19]: 12.5
selective drug sensitivity score [20]: 0.34

C[C@@H]1COCCN1c1cc(C2([S@](C)(=N)=O)CC2)nc(-c2cc[nH]c3nccc2-3)n1 [AZD6738] (top concentration 25000 nM)
selective drug sensitivity score [1]: 8.88
selective drug sensitivity score [2]: 10.8
selective drug sensitivity score [3]: 15.6
selective drug sensitivity score [4]: 8.08
selective drug sensitivity score [5]: 6.18
selective drug sensitivity score [6]: -2.72
selective drug sensitivity score [7]: 8.58
selective drug sensitivity score [8]: 7.38
selective drug sensitivity score [9]: 8.08
selective drug sensitivity score [10]: 1.38
selective drug sensitivity score [11]: 8.38
selective drug sensitivity score [12]: 8.48
selective drug sensitivity score [13]: -1.02
selective drug sensitivity score [14]: 13
selective drug sensitivity score [15]: 7.68
selective drug sensitivity score [16]: 9.98
selective drug sensitivity score [17]: 5.88
selective drug sensitivity score [18]: 13.1
selective drug sensitivity score [19]: 9.68
selective drug sensitivity score [20]: 5.88

CO[C@H](C(=O)[C@@H](O)[C@@H](C)O)[C@@H]1Cc2cc3cc(O[C@H]4C[C@@H](O[C@H]5C[C@@H](O)[C@H](O)[C@@H](C)O5)[C@@H](O)[C@@H](C)O4)c(C)c(O)c3c(O)c2C(=O)[C@H]1O[C@H]1C[C@@H](O[C@H]2C[C@@H](O[C@H]3C[C@](C)(O)[C@H](O)[C@@H](C)O3)[C@H](O)[C@@H](C)O2)[C@H](O)[C@@H](C)O1 [Plicamycin] (top concentration 10000 nM)
selective drug sensitivity score [1]: -1.46
selective drug sensitivity score [2]: -11.3
selective drug sensitivity score [3]: 7.54
selective drug sensitivity score [4]: -6.26
selective drug sensitivity score [5]: -15.4
selective drug sensitivity score [6]: 0.04
selective drug sensitivity score [7]: 0.44
selective drug sensitivity score [8]: 7.44
selective drug sensitivity score [9]: -2.36
selective drug sensitivity score [10]: -17.2
selective drug sensitivity score [11]: -17.5
selective drug sensitivity score [12]: -16.7
selective drug sensitivity score [13]: 5.34
selective drug sensitivity score [14]: -5.06
selective drug sensitivity score [15]: -17
selective drug sensitivity score [16]: -13.8
selective drug sensitivity score [17]: -12.8
selective drug sensitivity score [18]: -13.4
selective drug sensitivity score [19]: -15.6
selective drug sensitivity score [20]: -13.8

O=C(Nc1nc2cccc(-c3ccc(CN4CCS(=O)(=O)CC4)cc3)n2n1)C1CC1 [Filgotinib] (top concentration 10000 nM)
selective drug sensitivity score [1]: -0.24
selective drug sensitivity score [2]: -1.34
selective drug sensitivity score [3]: -3.74
selective drug sensitivity score [4]: -1.84
selective drug sensitivity score [5]: 0.96
selective drug sensitivity score [6]: -3.34
selective drug sensitivity score [7]: 1.66
selective drug sensitivity score [8]: -1.34
selective drug sensitivity score [9]: 1.46
selective drug sensitivity score [10]: -0.74
selective drug sensitivity score [11]: 0.26
selective drug sensitivity score [12]: -1.94
selective drug sensitivity score [13]: -2.64
selective drug sensitivity score [14]: 4.86
selective drug sensitivity score [15]: 5.86
selective drug sensitivity score [16]: -1.64
selective drug sensitivity score [17]: -2.04
selective drug sensitivity score [18]: 1.16
selective drug sensitivity score [19]: -0.64
selective drug sensitivity score [20]: 0.16

CCN(CCO)CCCOc1ccc2c(Nc3cc(CC(=O)Nc4cccc(F)c4)[nH]n3)ncnc2c1 [AZD1152-HQPA] (top concentration 1000 nM)
selective drug sensitivity score [1]: 23.4
selective drug sensitivity score [2]: 16.9
selective drug sensitivity score [3]: 24.2
selective drug sensitivity score [4]: 21.6
selective drug sensitivity score [5]: 8.84
selective drug sensitivity score [6]: 3.24
selective drug sensitivity score [7]: -1.46
selective drug sensitivity score [8]: 4.34
selective drug sensitivity score [9]: 16
selective drug sensitivity score [10]: 6.44
selective drug sensitivity score [11]: 17.1
selective drug sensitivity score [12]: 23.2
selective drug sensitivity score [13]: -2.46
selective drug sensitivity score [14]: 27.7
selective drug sensitivity score [15]: 9.54
selective drug sensitivity score [16]: 19
selective drug sensitivity score [17]: 21.8
selective drug sensitivity score [18]: 17.2
selective drug sensitivity score [19]: 22.2
selective drug sensitivity score [20]: 9.14

CC1(C)CCC(c2ccc(Cl)cc2)=C(CN2CCN(c3ccc(C(=O)NS(=O)(=O)c4ccc(N[C@H](CCN5CCOCC5)CSc5ccccc5)c(S(=O)(=O)C(F)(F)F)c4)cc3)CC2)C1 [Navitoclax] (top concentration 10000 nM)
selective drug sensitivity score [1]: 20
selective drug sensitivity score [2]: 17.4
selective drug sensitivity score [3]: 22.1
selective drug sensitivity score [4]: 8.42
selective drug sensitivity score [5]: 28.9
selective drug sensitivity score [6]: 19.2
selective drug sensitivity score [7]: 15.1
selective drug sensitivity score [8]: 17.8
selective drug sensitivity score [9]: 26.4
selective drug sensitivity score [10]: 24.8
selective drug sensitivity score [11]: 19.8
selective drug sensitivity score [12]: 22.2
selective drug sensitivity score [13]: -8.58
selective drug sensitivity score [14]: 12.2
selective drug sensitivity score [15]: 22.9
selective drug sensitivity score [16]: 17.6
selective drug sensitivity score [17]: 12.2
selective drug sensitivity score [18]: 4.92
selective drug sensitivity score [19]: 27.5
selective drug sensitivity score [20]: 16.9
